{"source": "paper PMC10926604", "about": "“Discovery of a novel small molecule as CD47/SIRPα and PD-1/PD-L1 dual inhibitor for cancer immunotherapy” (Cell Communication and Signaling : CCS, 2024)", "key": {"MC38 cells": {"system": "MC38 cells", "test": "MTT assay, MC38 cells", "type": "cell-based, mouse", "conditions": "100 µM; 24 h, 48 h, 72 h", "description": "MC38 and B16-OVA cells were seeded into 96-well plates at a density of 3,000 cells per well, respectively and allowed to adhere overnight. SMC18 was added to the cells and incubated for 24 h, 48 h and 72 h, respectively. Cell viability was measured by adding MTT (3-(4, 5-dimethyl-2-thiazolyl)-2,5-diphenyl-2-H-tetrazolium bromide, 298–93-1, Sigma) solution and incubating for 4 h. The cells were then lysed by shaking with DMSO. The absorbance values at 490 nm were measured using a multi-mode microplate reader (Molecular Devices, SpectraMax iD5).\nFig S3. The Effect of SMC18 on Tumor Cell Proliferation in vitro. MC38 cells (3000 cells/well) and B16-OVA cells (3000 cells/well) were seeded in flat-bottomed 96-well plates and allowed to adhere overnight. Subsequently, the cells were starved for 8 hours in serum-free medium. SMC18 was diluted in complete culture medium and added to the wells, following which the cells were incubated for 24 h, 48 h, and 72 h. After the designated incubation periods, 20 μL of MTT solution was added to each well. Four hours later, the supernatant was aspirated, and 150 μL of DMSO was added to each well to dissolve the MTT formazan product. The plates were then shaken for 10 minutes, and absorbance was measured at 490 nm using a microplate reader."}, "[1]": {"test": "Mouse blood indicators and H&E staining of major organs", "type": "in vivo", "conditions": "for ALT: NS 45.13 ± 1.55; for AST: NS 187.4 ± 25.5", "description": "Peripheral blood samples were collected from mice that received intravenous injections of SMC18 (2 or 6 mg/kg) for 2 weeks. The samples were analyzed for whole blood hematological test to detect the indicators of anemia and liver injury. For H&E staining analysis, tumors and the major organs (heart, liver, spleen, lung and kidney) were harvested from tumor-bearing mice. The tissues were then fixed with 4.0% paraformaldehyde for paraffin embedding and processed by H&E staining for histological evaluation. Immunostaining of tumor tissue sections was conducted utilizing anti-mouse CD8α andtibody (53–6.7, eBioscience)."}}, "data": [{"smiles": "Cc1cc(C)cc(NS(=O)(=O)c2ccc3[nH]cc(C(=O)NCCc4ccccc4)c(=O)c3c2)c1", "note": "[SMC18]", "values": [{"measurement": "toxicity to MC38 cells (MTT)", "setting": "MC38 cells", "result": "non-toxic"}, {"measurement": "ALT", "setting": "[1]; 2 mg/kg daily for 14 days", "result": "56.57 ± 13.3", "unit": "U/L"}, {"measurement": "AST", "setting": "[1]; 2 mg/kg daily for 14 days", "result": "196.4 ± 20.7", "unit": "U/L"}, {"measurement": "ALT", "setting": "[1]; 6 mg/kg daily for 14 days", "result": "46.83 ± 7.74", "unit": "U/L"}, {"measurement": "AST", "setting": "[1]; 6 mg/kg daily for 14 days", "result": "191.1 ± 23.3", "unit": "U/L"}, {"measurement": "content of alanine aminotransferase (ALT) vs control group", "setting": "[1]; 2 or 6 mg/kg daily for 14 days", "result": "no significant differences"}, {"measurement": "content of aspartate aminotransferase (AST) vs control group", "setting": "[1]; 2 or 6 mg/kg daily for 14 days", "result": "no significant differences"}, {"measurement": "levels of erythrocytes (RBC count) vs control group", "setting": "[1]; 2 or 6 mg/kg daily for 14 days", "result": "No significant differences"}, {"measurement": "levels of hemoglobin vs control group", "setting": "[1]; 2 or 6 mg/kg daily for 14 days", "result": "No significant differences"}, {"measurement": "H&E staining of major organs (heart, liver, spleen, lung, kidney)", "setting": "[1]; tumor-bearing mice treated with SMC18", "result": "no significant damage"}]}]}
